Where two headings read alike, the source gives them in different places.
Columns and labels:
Type in all cases: biochemical
KDM4C (JMJD2C) = biological target: T1, KDM4C (JMJD2C) (Homo sapiens, UniProt Q9H3R0); assay: Histone lysine demethylase AlphaLISA assay, KDM4C
T1 construct: KDM4C; BRIC, Denmark; 1-349; E. coli; host or cells: E. coli
T1 sequence (Q9H3R0 1-349): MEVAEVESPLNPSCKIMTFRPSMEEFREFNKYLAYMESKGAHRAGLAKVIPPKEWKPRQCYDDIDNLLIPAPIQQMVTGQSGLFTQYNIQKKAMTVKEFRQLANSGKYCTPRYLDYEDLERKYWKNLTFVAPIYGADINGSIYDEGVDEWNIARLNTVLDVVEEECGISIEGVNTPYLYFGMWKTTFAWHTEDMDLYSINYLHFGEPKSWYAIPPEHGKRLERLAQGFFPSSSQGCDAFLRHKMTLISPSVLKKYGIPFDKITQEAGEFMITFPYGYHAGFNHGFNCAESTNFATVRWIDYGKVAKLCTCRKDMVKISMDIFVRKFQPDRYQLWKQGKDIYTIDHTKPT
Summary of the method: (§1)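 AlphaLISA demethylase assay: enzyme in buffer of 50 mM Hepes (pH 7.4-8.0), 0.003-0.01% Tween-20, 0.1% BSA, 5 μM (NH4)2Fe(SO4)2 preincubated 10 min with compound before substrate addition at room temperature. Product detected with acceptor beads then streptavidin donor beads, read after dark incubation.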

KDM2B (FBXL10) = biological target: T2, KDM2B (FBXL10) (Homo sapiens, UniProt Q8NHM5); assay: Histone lysine demethylase AlphaLISA assay, KDM2B
T2 construct: KDM2B; BPS,; 1-650; Bac; purchased BPS Bioscience, US; host or cells: baculovirus system
T2 sequence (Q8NHM5 1-650): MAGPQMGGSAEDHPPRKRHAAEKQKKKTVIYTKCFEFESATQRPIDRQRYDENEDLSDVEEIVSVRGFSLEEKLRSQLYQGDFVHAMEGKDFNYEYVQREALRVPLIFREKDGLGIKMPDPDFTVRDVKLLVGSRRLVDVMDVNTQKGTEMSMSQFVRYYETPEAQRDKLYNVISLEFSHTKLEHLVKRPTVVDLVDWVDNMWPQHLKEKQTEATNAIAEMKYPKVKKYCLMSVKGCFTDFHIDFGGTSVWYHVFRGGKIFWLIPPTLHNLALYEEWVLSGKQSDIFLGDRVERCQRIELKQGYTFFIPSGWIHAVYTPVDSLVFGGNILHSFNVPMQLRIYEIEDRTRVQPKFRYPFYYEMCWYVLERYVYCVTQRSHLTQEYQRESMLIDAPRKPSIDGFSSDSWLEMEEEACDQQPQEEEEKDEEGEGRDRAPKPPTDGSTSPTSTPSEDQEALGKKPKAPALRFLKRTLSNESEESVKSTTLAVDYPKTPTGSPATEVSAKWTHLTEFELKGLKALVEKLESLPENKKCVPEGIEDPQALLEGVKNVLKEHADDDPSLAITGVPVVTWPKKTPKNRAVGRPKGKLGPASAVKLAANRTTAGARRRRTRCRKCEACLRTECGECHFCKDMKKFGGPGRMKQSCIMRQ
Summary of the method: as §1

KDM6A (UTX) = biological target: T3, KDM6A (UTX) (Homo sapiens, UniProt O15550); assay: Histone lysine demethylase AlphaLISA assay, KDM6A; details: AlphaLISA, in vitro; read-out: HDME Inhibition KDM6A
T3 construct: KDM6A (UTX); BRIC; 919-1401; E. coli; host or cells: E. coli
T3 sequence (O15550 919-1401): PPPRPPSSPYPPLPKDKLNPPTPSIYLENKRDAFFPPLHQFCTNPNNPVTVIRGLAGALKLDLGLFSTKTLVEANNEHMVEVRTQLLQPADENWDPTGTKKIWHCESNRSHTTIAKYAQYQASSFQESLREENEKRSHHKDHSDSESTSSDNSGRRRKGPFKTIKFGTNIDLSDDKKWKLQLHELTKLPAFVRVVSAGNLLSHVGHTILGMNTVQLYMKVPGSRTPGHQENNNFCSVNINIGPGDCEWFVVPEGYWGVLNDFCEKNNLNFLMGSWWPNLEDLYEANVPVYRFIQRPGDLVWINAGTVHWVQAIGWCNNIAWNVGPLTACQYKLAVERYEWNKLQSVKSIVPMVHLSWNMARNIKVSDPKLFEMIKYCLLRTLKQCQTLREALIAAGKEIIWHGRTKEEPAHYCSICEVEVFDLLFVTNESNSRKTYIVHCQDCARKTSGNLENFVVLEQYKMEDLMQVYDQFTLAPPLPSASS
Description: The compounds of the application, or a pharmaceutically acceptable salt, or solvate, or prodrug thereof, are tested in an in vitro AlphaLISA assay. Enzymes are dissolved in enzyme buffer and incubated before they are added to DMSO solutions of compounds of the application, or a pharmaceutically acceptable salt, or solvate, or prodrug thereof, in enzyme buffer. The reaction mixture is then incubated for an additional period of time before substrate solution is added and then the resulting mixture again incubated. Acceptor beads and suspended Epigenetic Buffer from stock are added and the suspension is again incubated before a suspension of streptavidin donor beads in Epigenetic Buffer is added. After an additional period of incubation, the plates are read.
The ability of compounds of the application to inhibit the histone lysine demethylase activity in vitro of different enzymes was determined.
The reaction mixture was incubated for another 10 minutes before 5 μL of substrate solution was added and the resulting mixture was then incubated at room temperature. […] After incubation at room temperature in the dark, the plates were read.
Enzyme Buffer: 50 mM Hepes (pH 7.4-8.0), 0.003-0.01% Tween-20, 0.1% BSA; 5 μM (NH4)2Fe(SO4)2.

KDM5B (PLU-1) = biological target: T4, KDM5B (PLU-1) (Homo sapiens, UniProt Q9UGL1); assay: Histone lysine demethylase AlphaLISA assay, KDM5B
T4 construct: BRIC; 1-809; E. coli; host or cells: E. coli
T4 sequence (Q9UGL1 1-809): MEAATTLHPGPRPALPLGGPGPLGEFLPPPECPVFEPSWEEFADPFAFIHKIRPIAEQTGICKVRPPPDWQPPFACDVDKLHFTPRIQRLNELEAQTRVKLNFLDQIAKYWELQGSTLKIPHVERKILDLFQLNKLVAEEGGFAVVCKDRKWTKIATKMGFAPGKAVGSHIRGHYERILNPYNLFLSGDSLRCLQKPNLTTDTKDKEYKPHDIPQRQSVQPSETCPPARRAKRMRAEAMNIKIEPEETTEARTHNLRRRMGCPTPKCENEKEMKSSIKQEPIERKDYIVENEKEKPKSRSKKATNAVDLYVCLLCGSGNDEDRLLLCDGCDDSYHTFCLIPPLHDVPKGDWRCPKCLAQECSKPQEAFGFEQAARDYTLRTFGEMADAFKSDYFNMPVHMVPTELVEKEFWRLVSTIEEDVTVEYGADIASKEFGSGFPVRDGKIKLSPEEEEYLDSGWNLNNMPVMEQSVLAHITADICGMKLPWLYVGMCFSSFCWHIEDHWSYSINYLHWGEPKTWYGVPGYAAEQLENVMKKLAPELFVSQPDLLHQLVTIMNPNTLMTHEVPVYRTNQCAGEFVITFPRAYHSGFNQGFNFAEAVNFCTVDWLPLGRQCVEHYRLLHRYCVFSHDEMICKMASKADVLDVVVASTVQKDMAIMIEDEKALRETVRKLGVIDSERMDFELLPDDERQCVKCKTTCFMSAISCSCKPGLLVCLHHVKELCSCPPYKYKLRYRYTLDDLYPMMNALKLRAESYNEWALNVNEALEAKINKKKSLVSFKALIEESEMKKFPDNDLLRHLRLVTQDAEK
Summary of the method: as §1

PHF8 (KDM7) = biological target: T5, PHF8 (KDM7) (Homo sapiens, UniProt Q9UPP1); assay: Histone lysine demethylase AlphaLISA assay, PHF8
T5 construct: KDM7 (PHF8); BRIC; 1-1322; Bac
T5 sequence (Q9UPP1 37-440 limits assumed): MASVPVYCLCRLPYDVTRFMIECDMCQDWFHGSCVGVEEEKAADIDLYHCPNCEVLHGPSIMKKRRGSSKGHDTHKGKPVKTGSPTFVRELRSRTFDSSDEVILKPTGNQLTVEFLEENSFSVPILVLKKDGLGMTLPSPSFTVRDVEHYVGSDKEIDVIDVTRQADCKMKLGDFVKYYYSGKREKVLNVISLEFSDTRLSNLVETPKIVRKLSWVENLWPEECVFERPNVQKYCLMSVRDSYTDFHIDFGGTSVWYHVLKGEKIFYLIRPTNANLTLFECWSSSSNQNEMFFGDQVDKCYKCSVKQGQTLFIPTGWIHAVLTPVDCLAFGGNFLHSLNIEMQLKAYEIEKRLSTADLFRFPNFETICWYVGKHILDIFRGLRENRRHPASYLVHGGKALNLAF
Summary of the method: as §1

[1] = AlphaLISA assay, read-out: HDME Inhibition KDM4C (IC50)
[2] = AlphaLISA, in vitro, read-out: HDME Inhibition KDM4C
[3] = AlphaLISA, in vitro, read-out: HDME Inhibition KDM2B
[4] = AlphaLISA, in vitro, read-out: HDME Inhibition PHF8
[5] = AlphaLISA assay, read-out: HDME Inhibition KDM5B (IC50)
[6] = AlphaLISA, in vitro, read-out: HDME Inhibition KDM5B
[7] = AlphaLISA assay, read-out: HDME Inhibition PHF8 (IC50)
[8] = AlphaLISA assay, read-out: HDME Inhibition KDM2B (IC50)

SMILES	IC50 (KDM4C (JMJD2C); [1])	IC50 (KDM4C (JMJD2C); [2])	IC50 (KDM2B (FBXL10); [3])	IC50 (KDM6A (UTX))	IC50 (KDM5B (PLU-1))	IC50 (PHF8 (KDM7); [4])	IC50 (KDM5B (PLU-1); [5])	IC50 (KDM5B (PLU-1); [6])	IC50 (PHF8 (KDM7); [7])	IC50 (KDM2B (FBXL10); [8])
CC(=O)c1ccc(Cn2ccnc2CNCc2cc(C(=O)O)cc(C)n2)cc1 [Compound 24, 2-{[({1-[(4-acetylphenyl)methyl]-1H-imidazol-2-yl}methyl)amino]methyl}-6-methylpyridine-4-carboxylic acid]	> 10 µM	> 10 µM	2.23 µM	8.35 µM	0.262 µM					
C=C(C)c1cnc(CNCc2cc(C(=O)O)cc(C)n2)n1Cc1ccc(F)cc1 [Compound 103, 2-{[({1-[(4-fluorophenyl)methyl]-5-(prop-1-en-2-yl)-1H-imidazol-2-yl}methyl)amino]methyl}-6-methylpyridine-4-carboxylic acid]	> 10 µM	> 10 µM	0.056 µM			0.16 µM	> 10 µM	> 10 µM		
COc1ccc(OCCc2ccccc2)c(CCNCc2cc(C(=O)O)cc(CO)n2)n1 [Compound 107, 2-(hydroxymethyl)-6-[({2-[6-methoxy-3-(2-phenylethoxy)pyridin-2-yl]ethyl}amino)methyl]pyridine-4-carboxylic acid]	> 10 µM	> 10 µM	5.18 µM			> 10 µM	> 10 µM	> 10 µM	> 10 µM	
CCc1cnc(CNCc2cc(C(=O)O)cc(C)n2)n1CCCc1ccccc1 [Compound 108, 2-[({[5-ethyl-1-(3-phenylpropyl)-1H-imidazol-2-yl]methyl}amino)methyl]-6-methylpyridine-4-carboxylic acid]	> 10 µM	> 10 µM	0.133 µM			0.861 µM	> 10 µM	> 10 µM		
COc1ccc(O)c(CCNCc2cc(C(=O)O)cc(CO)n2)n1 [Compound 109, 2-({[2-(3-hydroxy-6-methoxypyridin-2-yl)ethyl]amino}methyl)-6-(hydroxymethyl)pyridine-4-carboxylic acid]	> 10 µM	> 10 µM	> 10 µM			> 10 µM	> 10 µM	> 10 µM	> 10 µM	> 10 µM
NCc1cc(C(=O)O)cc(CN)n1 [Compound 110, 2,6-bis(aminomethyl)pyridine-4-carboxylic acid]	> 10 µM	> 10 µM	> 10 µM			> 10 µM	> 10 µM	> 10 µM	> 10 µM	> 10 µM
O=Cc1cn(Cc2ccc(F)cc2)c(CNCc2cc(C(=O)O)cc(CO)n2)n1 [Compound 111, 2-{[({1-[(4-fluorophenyl)methyl]-4-formyl-1H-imidazol-2-yl}methyl)amino]methyl}-6-(hydroxymethyl)pyridine-4-carboxylic acid]	> 10 µM	> 10 µM	0.823 µM		1.07 µM	5.1 µM				
CC#CCc1cnc(CNCc2cc(C(=O)O)cc(C)n2)n1Cc1ccc(F)cc1 [Compound 112, 2-[({[5-(but-2-yn-1-yl)-1-[(4-fluorophenyl)methyl]-1H-imidazol-2-yl]methyl}amino)methyl]-6-methylpyridine-4-carboxylic acid]	> 10 µM	> 10 µM	0.375 µM			3.52 µM	> 10 µM	> 10 µM		
Cc1cc(C(=O)O)cc(CNCc2nnc3n2C(c2ccccc2)CNC3)n1 (stereo not shown) [Compound 113, 2-methyl-6-{[({5-phenyl-5H,6H,7H,8H-[1,2,4]triazolo[4,3-a]pyrazin-3-yl}methyl)amino]methyl}pyridine-4-carboxylic acid]	> 10 µM	> 10 µM	2.83 µM			> 10 µM	> 10 µM	> 10 µM	> 10 µM	
Cc1cc(C(=O)O)cc(CNCc2ncc(CCC(N)=O)n2Cc2ccc(F)cc2)n1 [Compound 114, 2-[({[5-(2-carbamoylethyl)-1-[(4-fluorophenyl)methyl]-1H-imidazol-2-yl]methyl}amino)methyl]-6-methylpyridine-4-carboxylic acid]	> 10 µM	> 10 µM	0.317 µM			1.14 µM	> 10 µM	> 10 µM		
CCc1cnc(CNCc2cc(C(=O)O)cc(C)n2)n1Cc1cccs1 [Compound 115, 2-[({[5-ethyl-1-(thiophen-2-ylmethyl)-1H-imidazol-2-yl]methyl}amino)methyl]-6-methylpyridine-4-carboxylic acid]	> 10 µM	> 10 µM	0.053 µM			0.506 µM	> 10 µM	> 10 µM		
